This assay relates to gastric cancer cell line TSGH-9201. The assay can be described thus: In vitro survival assay (MTT) for anti-gastric cancer effects. Type of assay: cell-based. Particulars: Homo sapiens, TSGH-9201 cells, 48 hours treatment, read-out: IC50 (half inhibition concentration), survival of gastric cancer cells. The protocol:
Inhibiting effects of gastric cancer cells by cyclohexenone compounds of Antrodia camphorata from example 1 were assessed according to the anticancer-drug screening model of National Cancer Institute (NCI). The compound 4-hydroxy-2,3-dimethoxy-6-methyl-5-(3,7,11-trimethyl-dodeca-2,6,10-trienyl)-cyclohex-2-enone from example 1 was added into the culture media of gastric cancer cell line TSGH-9201 to determine the survival rates. Survival of cell was analyzed using MTT assay. TSGH-9201 cell line was a human gastric carcinoma cell line.
MTT assay is commonly used to analyze cell proliferation, survival rate of viable cells and cytotoxicity. MTT (3[4,5-dimethylthiazol-2-yl]-2,5-diphenyltetrazolium bromide) is a yellow dye which can be converted to water-insoluble purple formazan on the reductive cleavage of its tetrazolium ring by the succinate tetrazolium reductase in mitochondria of cells. The amount of formazan produced is used to detect the number of viable cells and calculate the survival rates.
The TSGH-9201 cells were cultivated in DMEM medium supplemented with 10% fetal bovine serum, 100 U/ml of Penicillin and 100 μg/ml of Streptomycin at 37° C., 5% CO2 for 24 hours. Proliferated cells were washed once with PBS, treated with 1× trypsin-EDTA, and centrifuged at 1200 rpm for 5 min. […] The absorbances were measured at 570 nm with an ELISA Reader to determine the survival rates.

In the case of `COC1=C(OC)C(O)C(C/C=C(\C)CC/C=C(\C)CCC=C(C)C)C(C)C1=O` (stereo not shown) [formula 2, 4-hydroxy-2,3-dimethoxy-6-methyl-5-(3,7,11-trimethyl-dodeca-2,6,10-trienyl)-cyclohex-2-enone], the IC50 came to 1.32 µg/mL.

The values above are taken from patent publication US20110060056A1, “Inhibition of the Survival of Gastric Cancer by Cyclohexenone Compounds from Antrodia Camphorata” (GOLDEN BIOTECHNOLOGY CORPORATION, priority 2009, published 2011).
